Data: patent publication US8202696B2, “Means for use in treating diseases correlated with or caused by non-physiological levels of microtubule-associated PP2Ac” (Max-Planck-Gessellschaft zur Forderung der Wissenschaften …, priority 2002, dated 2012)
“Also recorded” adds a separate entry of the source. One block for each compound: values may come before it.

Tests used:
[1] = tested on: Gli3; experiment: Localization of overexpressed GFP-tagged Gli3 in HeLa cells; type: cell-based; settings: GFP-Gli3 plus B-Box overexpressing HeLa cells
Protocol: 1×10^5 HELA cells per well of a 6-well plate were transfected with Qiagen Polyfect transfection reagent according to the manufacturer's instructions. The ratio of the amount of DNA to the amount of polyfect transfection reagent was 3 μg DNA/10 μl Polyfect. Constructs used for expression in HELA were the following: GFP-GLI3 (aa 18-1549), GLI3-GFP (aa 1-1522), MYC-GLI3 (aa 18-1596), FLAG-GLI3 (aa18-1596), MYC-B-BOX1 (aa 110-167 of the MID1 protein), ALPHA4-V5 (aa 1-339). 24 h after transfection immunofluorescence was performed. GFP-constructs were treated as described in Schweiger et al., 1999. Immunofluorescence with MYC-tagged and FLAG-tagged constructs was done according to Trockenbacher et al., 2001. FLAG-tagged constructs were detected with anti-FLAG-antibody diluted 1:500, the secondary antibody FITC-antimouse was diluted 1:1000. For MYC-tagged constructs anti-MYC-antibody 1:300 and CY3-antirabbit 1:1000 were used. […]
Overexpressed Gli3 is predominantly localized in the nucleus (FIG. 10, top left).

[2] = tested on: PP2A; experiment: hFused phosphorylation in vitro, cytosol incubated with or without fostriecin, Western blot; type: biochemical; settings: fostriecin 500 nM, 4 h, 30° C.
Protocol: 8×10^5 cells were transfected with hFused-V5 (aa 1-1335) using Qiagen Polyfect transfection reagent according to the manufacturer's instructions. Cytosol of hFused-V5 overexpressing cells was incubated for 4 h in the presence or absence of fostriecin (500 nM) at 30° C. Proteins (200 μg protein per lane) were separated on a 6% SDS-gel, blotted on PVDF-membranes and incubated with anti-V5-antibody (1:3000). Secondary HRP-antimouse-antibody was diluted 1:2000.
Fostriecin is a highly specific inhibitor of PP2A activity.
Cytosol of V5-tagged hFused-overexpressing cells was incubated for 4 h in the absence (line1) and presence (line2) of fostriecin at 30° C. Subsequently proteins were separated on an SDS-Page, blotted and incubated with an anti-V5 antibody.

[3] = tested on: proteasome; experiment: Polyubiquitinated proteins in the MID1 immune complex, COS7 cells; type: cell-based; settings: MID1-myc, anti-myc precipitate
Protocol: Immunoprecipitation, western blotting and immunofluorescence. For COS7 cells, we lysed in IP1 buffer 8×10^6 cells transfected with pBudCE4 vector carrying the respective cDNAs. After preclearing the lysate with 50 μl protein A-agarose (slurry), we incubated supernatants with 2 μg anti-V5 overnight at 4° C. and then for 2 h with 75 μl (slurry) protein A-agarose. After three washes in IP1 buffer, we eluted the proteins with 1× Laemmli buffer at 95° C. MID1-V5 expression was optimal 48 h after doxycyclin removal from 293 tet-off cell lines. We then lysed cells in IP1 buffer and carried out immunoprecipitation with 2 μg anti-V5. We boiled proteins in 1×SDS-PAGE buffer, separated them on 10% and 12% SDS gels, blotted on PVDF membranes (Roche) and blocked and incubated with the respective primary antibody according to the manufacturer's instructions. Because several RING-finger proteins interact with target proteins and thereby elicit their ubiquitin-dependent degradation^8-11, we examined interaction of MID1 with polyubiquitinated proteins. We transfected COS7 cells either with MID1 cDNA or, as a control, with cDNA encoding protein kinase C (PKC), each tagged with a C-terminal V5 epitope or an empty vector, respectively. We treated the cells with 25 μM of LLnL, a proteasome inhibitor, 24 h after transfection to enrich for ubiquitinated proteins. […]

[4] = tested on: tau protein; experiment: Tau-1 and pan-Tau immunofluorescence in transfected postnatal sympathetic neurons; type: cell-based, rat; settings: compared to non-transfected neurons = 100%, two days after transfection
Protocol: Peripheral sympathetic neurons were obtained from postnatal day 1-3 rats. […] Following mechanical dissociation the cell suspension was filtered through a 40 μm nylon mesh and seeded at 6 SCGs per well into uncoated Falcon dishes for preplating purposes. After 4 hours neurons were transferred into glass floor dishes (Willco Wells B.V., gwst 3522, 3.8 cm^2 area/dish) coated with poly-D-lysine/laminin. Neurons were maintained in RPMI medium containing antibiotics, N2 additive (Invitrogen) and 100 ng/ml nerve growth factor (NGF; Sigma) at 37° C. in a humidified atmosphere with 5% CO2.
Neurons were transfected 2 hours after seeding applying the biolistic approach. This method uses a hand held gun to bombard dissociated neurons at high velocity with micron-size gold particles loaded with DNA. The coating of gold particles with DNA was achieved using a modification of the manufacturer's instructions (Bio-Rad Laboratories). For preparation of 35 cartridges 25 mg gold particles (1.6 μm diameter) were suspended in 50 μl of 0.05 M spermidine. After vortexing and sonication for 5 seconds, 50 μg plasmid DNA dissolved in 50 μl TE buffer was added (for co-transfection experiments, 80 μg were used, i.e., 40 μg Plasmid I+40 μg Plasmid 2). The amount of gold particles and DNA corresponds to a microcarrier loading quantity (MLQ) of about 0.7 (mg/cartridge) and to a DNA loading ratio (DLR) of 2 (μg/mg) for single transfection experiments. DNA, spermidine and gold were then mixed for 5 sec in a variable speed vortexer. At low vortexing speed, 50 μl 1 M CaCl2 was added dropwise to the mixture for association of DNA with the gold particles followed by precipitation for 10 min at room temperature. The supernatant was removed and the pellet rinsed with 800 μl of 100% ethanol. Washing was repeated two times with centrifugation steps at 3000 g between each wash. […]
A fully motorized Zeiss Axiovert 100M microscope equipped for inverted fluorescence was used for visualization of fluorescent neurons. […]

[5] = target: T1, α4 (Homo sapiens, UniProt P78318); experiment: Yeast two-hybrid interaction of MID1 constructs with α4; type: binding
T1 construct: expressed in transfected cells; host or cells: L40 yeast strain
T1 sequence (P78318 1-339): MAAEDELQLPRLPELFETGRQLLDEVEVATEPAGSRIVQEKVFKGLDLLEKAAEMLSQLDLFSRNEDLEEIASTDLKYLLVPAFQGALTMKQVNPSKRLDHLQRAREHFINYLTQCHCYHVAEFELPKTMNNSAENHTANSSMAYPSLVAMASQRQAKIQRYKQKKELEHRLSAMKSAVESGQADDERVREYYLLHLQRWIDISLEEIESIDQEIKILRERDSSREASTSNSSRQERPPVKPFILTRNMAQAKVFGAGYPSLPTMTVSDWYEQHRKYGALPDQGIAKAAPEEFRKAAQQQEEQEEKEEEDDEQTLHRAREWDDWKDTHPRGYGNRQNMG
Protocol: Yeast two-hybrid screening. For yeast two-hybrid screening, we cloned full-length MID1 cDNA into the pBTM116 vector. We then cotransfected this with a human fetal brain cDNA Matchmaker library in the pGAD10 vector (Clontech) into the L40 yeast strain. We plated the transformants on synthetic medium lacking histidine, leucine and tryptophan (his^− leu^− trp^−) and containing 3-amino-1,2,4, triazole, and incubated the plates at 30° C. for 5 days. We assayed his-positive colonies for β-galactosidase activity with a filter assay^47. We isolated plasmid DNA from β-galactosidase-positive clones and cotransfected this again into L40 yeast with MID1-pBTM116 and controls. We selected plasmids that produced growth on selective plates only in combination with MID1-pBTM116, which were assumed to code for MID1 interactors, and sequenced them.
Activity of β-galactosidase in yeast liquid cultures. We assayed cells for β-galactosidase activity by the o-nitrophenyl-β-D-galactopyranoside (ONPG) method^47.
MID1 is a multidomain protein harboring a RING finger, two B-boxes, a coiled-coil region, a fibronectin type III domain and a B30.2 domain^3—all of which are candidate regions for specific protein-protein interactions. To clarify which domain specifically binds α4, we tested several deletion mutants of MID1 for interaction with α4 in the yeast two-hybrid system. […]

Compound: C[C@@](O)(/C=C/[C@H]1CC=CC(=O)O1)[C@@H](C[C@@H](O)\C=C/C=C\C=C\CO)OP(=O)(O)O [fostriecin]
- Gli3 localization in presence of B-Box overexpression [1]: reverse the observed effect
- Phosphorylated hFused-band on Western blot [2]: clear enrichment of the phosphorylated hFused-band
- Ratio between phosphorylated and dephosphorylated hFused-form ([2]; cytosol of V5-tagged hFused-overexpressing cells, control without fostriecin 1.8×): 18 ×

Compound: CC(=O)N[C@@H](CSC(=O)[C@]1([C@@H](O)C(C)C)NC(=O)[C@H](C)[C@@H]1O)C(=O)O [lactacystin]
- High-molecular weight proteins in MID1-myc-containing precipitates [3]: enrichment of high-molecular weight proteins

Compound: inactive mutated form of the B-BOX1: Bbox1 with exchange of alanine 130 to threonine, abolishes association with α4 (ANTMTSAEKVLCQFCDQDPAQDTVKTCVTCEVSYCDECLKATHPNKKPFTGHRLIEPI) [reference compound]
- Tau-1 immunoreactivity (dephosphorylated tau) [4]: does not show this effect; also recorded: do not exhibit different fluorescent levels

- Interaction with α4 [5]: binds α4
Compound: MID2: protein highly similar in amino acid sequence (83%) to MID1 (PTTAMSSERIACQFCEQDPPRDAVKTCITCEVSYCDRCLRATHPNKKPFTSHRLVEPV; listed as Homo sapiens)
